Literature values in article PMC7958448, “Bepridil is potent against SARS-CoV-2 in vitro” (Proceedings of the National Academy of Sciences of the …, 2021).

System: SARS-CoV-2 in Vero E6 cells
Conditions: cited from earlier work

CCC(CC)COC(=O)[C@H](C)N[P@](=O)(OC[C@H]1O[C@@](C#N)(c2ccc3c(N)ncnn23)[C@H](O)[C@@H]1O)Oc1ccccc1 [remdesivir]
EC50: 770 nM
